± gives the expanded uncertainty stated by the source.
experiment: refractive index (Na D-line) (dimensionless); conditions: 293.1 K; 101.33 kPa; Liquid; Standard Abbe refractometry

SMILES | refractive index
Cc1cc(C)cc(C)c1 [1,3,5-trimethylbenzene] | 1.4992 ± 0.0007
CN1CCCC1=O [N-methylpyrrolidone] | 1.4686 ± 0.0007
CCCCCCCCCCCCCCCC [hexadecane] | 1.4344 ± 0.0007

Reference: the NIST ThermoML archive (doi:10.1021/je050513r)
